From article PMC12040169 (PLOS Biology, 2025) come the findings set out here.

The data set is described as follows: in vitro. As to conditions: human, hela cells, % viability.

As a reminder, the viability is a read-out of living cells in per cent, often relative to untreated cells. On to `C[C@@H](c1ccccc1)n1c(=O)[nH]c2ncc(-c3cncc4ccccc34)nc21` [CBK064726], for which the viability at 28.5 h, 10 µM worked out at 73.9%.
On the same count and under the same terms, next, `O=C(C1CC1)N1C[C@@H](c2ccsc2)[C@@H]2CN(C3CCCC3)CC[C@@H]21` [CBK283382]: 107%; `O=c1[nH]c2ncc(-c3ccc(-c4ccccc4)cc3)nc2n1Cc1cccnc1` [CBK064282]: 94%; `O=C(CSc1nnc(CN2CCOCC2)n1-c1ccccc1)N1CCN(c2ccccc2)CC1` [CBK266660]: 102%.
Same read-out and setting: for `CN(C(=O)C1CC1)c1nc2c(s1)CCc1c-2cnn1C` [CBK281927] the value was 75.7%; for `C(=C\c1nccnc1OCCc1cccs1)/c1ccccc1` [CBK106873], 101%.
Still for that read-out and setting: for `O=C(C1=C(O)C(=O)N(CCN2CCOCC2)C1c1ccccn1)c1cccs1` (stereo not shown) [CBK266508] the value was 99.3%; for `N/C(=N/OCC(=O)Nc1cccc2ccccc12)c1nonc1N` [CBK265234], 90.6%.
Turning to `CCN1CC2(CCN(Cc3ccc4nsnc4c3)CC2)c2ccccc21` [CBK136994], the viability at 28.5 h, 10 µM was 87.7%.
The same measure, in the same setting: for `CCCCSc1nc(N)cc(N2CCC(C(=O)NCC)C2)n1` (stereo not shown) [CBK306880] the value was 88.2%; for `CC(C)(O)C#Cc1ccc(C(=O)N2CCN(Cc3ccccc3)CC2)cc1` [CBK263100], 80.3%; for `COc1ccc([C@@]23CC[C@@H](NC(=O)Nc4ccc(Cl)nc4)C[C@@H]2N(C)CC3)cc1OC` [CBK045764], 91.9%.
Turning to `CCOc1cc(NC2CCN(C(=O)C3CCCC3)C2)ncn1` (stereo not shown) [CBK304137], the viability at 28.5 h, 10 µM is 106%.
On the same count and under the same terms, next, `CCCN1CCC(N2CCN(c3ccc([N+](=O)[O-])cc3)CC2)CC1` [CBK018459]: 96.3%; `O=C(NCC(O)c1ccc([N+](=O)[O-])cc1)c1cccc(S(=O)(=O)N2CCCC2)c1` (stereo not shown) [CBK268847]: 119%; `Cc1cnc(CNC(=O)C2(c3ccccc3)CCCC2)cn1` [CBK149531]: 101%.
Take `O=C(O)c1cc(-c2ccccn2)nc2ccccc12` [CBK262147K]: the viability at 28.5 h, 10 µM amounted to 108%.
Still for that read-out and setting: next, `CC(C)n1cc(C(=O)N2CCC(c3cc4ncccc4[nH]3)CC2)cn1` [CBK283392]: 95.6%; `FC(F)(F)c1ccc(Sc2cccs2)nc1` [CBK115236]: 92.5%; `CCCCN(C)c1c(C)nc2c(OCC3CCCCO3)cccn12` (stereo not shown) [CBK147180]: 103%.
The same measure, in the same setting: for `CCN(CC)S(=O)(=O)c1cc(C(=O)Nc2ccccc2C(=O)O)c(Cl)cc1Cl` [CBK265731] the value was 125%; for `CCC1CCCCN1C(=O)c1cccc(C)n1` (stereo not shown) [CBK076750], 92.4%.
Same read-out and setting: for `Cc1c(C(=O)NCC[S+](C)[O-])oc2c(C)cccc12` (stereo not shown) [CBK282511] the value was 88.8%; for `CC(C)(C)c1ccc(-c2cc(C3CCNCC3)n[nH]2)cc1` [CBK270240], 94%; for `Fc1ccccc1CN(CCCn1ccnc1)Cc1ccco1` [CBK282952], 109%.
As for `O=C(NCC1CCCCC1)C1(Cc2ccc(-c3ccncc3)cc2)CCOCC1` [CBK285564], the viability at 28.5 h, 10 µM was found to be 121%.
Same read-out and setting: next, `CC(=O)Nc1ccc(Nc2cc(-c3ccc(CC(C)C)cc3)ncn2)cc1` [CBK090723]: 99.4%; `CSc1nnc(-c2cccc(C)c2)n1CC(C)C` [CBK076764T]: 89.1%.
The same measure, in the same setting: next, `CC(Oc1cccc(C#N)c1)C(=O)N1CCSCC1` (stereo not shown) [CBK305748]: 97%; `CC1CCc2c(sc3ncnc(SC(C)C(=O)OC4CCCCC4)c23)C1` (stereo not shown) [CBK265050]: 104%; `O=C(Cn1cc(C(=O)NC2CCCCC2)ccc1=O)NCC1(c2ccccc2Cl)CC1` [CBK286101]: 86.4%.
Still for that read-out and setting: for `COc1ccc(-c2noc(CN(C(=O)Cc3ccc(C)cc3)C(C)C)n2)cc1` [CBK269774] the value was 89.6%.
As for `CC(=O)c1ccc(-c2nc(NC(=O)CC#N)cnc2-c2ccc(F)c(Cl)c2)s1` [CBK036841], the viability at 28.5 h, 10 µM is 108%.
The same measure, in the same setting: next, `CC(C)C(=O)N(C)c1nnc(-c2cccnc2)s1` [CBK007554]: 114%; `COc1ccc(-c2nc(-c3ccc(C(=O)N4CCOCC4)cc3)cnc2N)cc1` [CBK116509]: 108%.
On the same count and under the same terms, for `CC(=O)c1cccc(NC(=O)CCn2[nH]c(=O)ccc2=O)c1` [CBK306094] the value was 91.4%.
On the same count and under the same terms, for `CC(CCCC(C)(C)O)Nc1cncc(-c2cccc(C(=O)O)c2)n1` (stereo not shown) [CBK065489] the value was 103%; for `CNCCc1ccccc1Sc1ccccc1` [CBK027155G], 102%; for `CC(=O)Nc1ccc(S(=O)(=O)Nc2nnc(Cc3ccc(Cl)cc3)s2)cc1` [CBK045515], 97.9%.
With `Cc1csc(-c2ccc(C(=O)N(C)CCN(C)C)c(N(C)C)n2)c1` [CBK106088], the viability at 28.5 h, 10 µM is 94.1%.
Still for that read-out and setting: next, `Cc1ccc(Oc2ccc([N+](=O)[O-])cc2)c(Br)c1` [CBK002832]: 90.6%.
For `COCCNc1nc2c(c(N3CCC(C#N)CC3)n1)CCNCC2` [CBK307706], the viability at 28.5 h, 10 µM was determined as 86.6%.
The same measure, in the same setting: next, `c1ccc(C(NCc2cnc(-c3cnccn3)s2)C2CCC2)cc1` (stereo not shown) [CBK304016]: 106%.
Same read-out and setting: for `CN(C)S(=O)(=O)NCc1ccc2c(c1)OCO2` [CBK264364] the value was 108%; for `Oc1nc2cccnc2cc1-c1ccc2c(c1)OCCCO2` [CBK081299], 96%; for `CC1CCc2c(sc3ncnc(OCC(=O)NC4CCCC4)c23)C1` (stereo not shown) [CBK305893], 83.1%.
The same measure, in the same setting: next, `COc1ccc(C(=O)Nc2c(C)nn(-c3ccccc3)c2C)cc1S(=O)(=O)NC1CC1` [CBK297906]: 85.7%; `O=C(c1cncnc1)N1Cc2ccccc2C1` [CBK200223]: 106%; `Cc1cccn2c(=O)cc(CN3CCC(c4cn[nH]c4)CC3)nc12` [CBK305764]: 101%.
Turning to `CN(C)c1nc2c(c(-c3cncc(N)c3)n1)CCCC2` [CBK307503], the viability at 28.5 h, 10 µM is 105%.
Same read-out and setting: next, `Cc1ccc(CNC(=O)Cn2cc(-c3ccc(CN4CCC(C)CC4)cc3)nn2)cc1` [CBK164706]: 87.1%; `COc1ccc(CSc2nnc(SCc3ccc(C(=O)O)cc3)s2)cc1` [CBK300477]: 104%.
Turning to `CC(C)C(Nc1c([N+](=O)[O-])cc(C(F)(F)F)cc1[N+](=O)[O-])C(=O)O` (stereo not shown) [CBK261041], under “bulk resorufin, single well”, the viability at 28.5 h, 10 µM turned out to be 96.4%.
In the case of `COc1cc(NC(=O)CC2NC3CCCCC3NC2=O)cc(OC)c1OC` (stereo not shown) [CBK270012], the viability at 28.5 h, 10 µM was found to be 84.5%.
On the same count and under the same terms, for `O=C(Nc1ccccc1N1CCOCC1)c1ccc(OCc2ccccc2)cc1` [CBK265992] the value was 96.3%.
For `O=C(c1nccs1)C1CCN(C(=O)Cc2ccccc2F)CC1` [CBK284161], the viability at 28.5 h, 10 µM was found to be 87.3%.
Take `CN(C)c1ccc(-c2nc(-c3ccco3)cnc2N)cc1` [CBK063934]: the viability at 28.5 h, 10 µM was determined as 104%.
The same measure, in the same setting: for `O=C(COc1ccc2ccccc2c1)NCCN1CCOCC1` [CBK265444] the value was 107%.
